Here are results for 14 molecules from US5399588A, “Naphthalenylmethyl cycloalkenone acetic acids and analogs thereof useful as aldose reductase inhibitors” (American Home Products Corporation, priority 1993, dated 1995).

Test [1] concerns the target T1, bovine lens aldose reductase (Bos taurus, UniProt P16116).
T1 construct: in the preparation of the enzyme from bovine lens; from tissue; host or cells: bovine lens
Description: In vitro Inhibition of Aldose Reductase in the Bovine Lens. In kind it is biochemical. The following applies: DL-glyceraldehyde as substrate; for inhibition at 10 µM: 10^-5 M; for inhibition at 0.04 µM: 4 × 10^-8 M; for inhibition at 1 µM: 10^-6 M. The procedure: II. In vitro Inhibition of Aldose Reductase in the Bovine Lens
The aldose reductase inhibiting effects of the compounds of formula (I) were also tested by employing an in vitro testing procedure similar to that described by S. Hayman and J. H. Kinoshita, J. Biol. Chem., 240, 877 (1965) wherein the ability of the invention compounds to inhibit bovine lens aldose reductase with DL-glyceraldehyde as the substrate was determined. In the present case the procedure of Hayman and Kinoshita was modified in that the final chromatography step was omitted in the preparation of the enzyme from bovine lens.

In the next test the test system is aldose reductase. Description: In vivo Inhibition of Aldose Reductase in Galactosemic Rats. Further details: species or system male rats, Sprague-Dawley strain. The note with it: four days, polyol accumulation. The text has this:
I. In vivo Inhibition of Aldose Reductase in Galactosemic Rats
The aldose reductase inhibiting property of the compounds of this invention and the utilization of the compounds in preventing, diminishing and alleviating diabetic complications are demonstrable in experiments using galactosemic rats, see Dvornik et al., Science, 182, 1146 (1973).
(a) Four or more groups of six male rats, 50-70 g, Sprague-Dawley strain, were used. The first group, the control group, was fed a mixture of laboratory chow (rodent Laboratory Chow, Purina) and glucose at 20% (w/w %) concentration. An untreated galactosemic group was fed a similar diet in which galactose was substituted for glucose. The third group was fed a diet prepared by mixing a given amount of the test compound with the galactose containing diet. The concentration of galactose in the diet of the treated groups was the same as that for the untreated galactosemic group.
(b) After four days, the animals were killed by euthanization. Both the lens and sciatic nerve were removed, weighed and stored frozen for polyol determination.
(c) The polyol determination was performed by a modification of the procedure of M. Kraml and L. Cosyns, Clin. Biochem., 2, 373 (1969). Only two minor reagent changes were made: (a) the rinsing mixture was an aqueous 5% (w/v) trichloroacetic acid solution and (b) the stock solution was prepared by dissolving 25 mg of dulcitol in 100 mL of an aqueous trichloroacetic acid solution. [N.B.: For each experiment the average value found in the tissue from rats fed the glucose diet was subtracted from the individual values found in the corresponding tissue in galactose-fed rats to obtain the amount of polyol accumulated].

Setting [2] is: 100 mg/kg/day in galactose-containing diet.

The inhibition is the drop in the measured response relative to a control, in per cent. Read a low inhibition as a weak effect. With `COc1ccc2c(CC3=C(CC(=O)O)CCC3=O)cccc2c1C(F)(F)F` [Example 14, [2-(6-Methoxy-5-trifluoromethyl-naphthalen-1-ylmethyl)-3-oxo-cyclopent-1-enyl]-acetic acid], in test [1], testing at 10 µM gave an inhibition of 84%. On to `O=C(O)COC1=C(Cc2ccc3c(Br)cccc3c2)C(=O)CCC1` [Example 10, [[2-(5-bromo-naphthalen-2-ylmethyl)-3-oxo-cyclohex-1-enyl]oxy]-acetic acid], for which the inhibition at 0.04 µM in test [1] turned out to be 86%. As to `O=C(O)CC1=C(Cc2ccc3c(Cl)cccc3c2)C(=O)CCC1` [Example 3, [2-(5-chloro-naphthalen-2-ylmethyl)-3-oxo-cyclohex-1-enyl]-acetic acid], at 0.04 µM the inhibition in test [1] was 79%. Besides, the “% Inhibition of aldose reductase” value in the test on aldose reductase (105 mg/kg/day in galactose-containing diet) is 52%; in the test on aldose reductase (202 mg/kg/day in galactose-containing diet), 73%. The molecule `O=C(O)COC1=C(Cc2ccc3ccccc3c2)C(=O)CC1` [Example 12, [[2-(2-Naphthalen-2-ylmethyl)-3-oxo-cyclopent-1-enyl]oxy]-acetic acid] yielded an inhibition at 1 µM in test [1] of 61%.

In test [1], `O=C(O)CC1=C(Cc2ccc3c(Br)cccc3c2)C(=O)CCC1` [Example 1, [2-(5-Bromo-naphthalen-2-ylmethyl)-3-oxo-cyclohex-1-enyl]-acetic acid] returned an inhibition at 0.04 µM of 78%. In addition, the “% Inhibition of aldose reductase” value in the test on aldose reductase (setting [2]) is 68%. For the molecule `COC(=O)NC(=O)CC1=C(Cc2ccc3c(Br)cccc3c2)C(=O)CCC1` [Example 5, [[2-(5-bromo-naphthalen-2-ylmethyl)-3-oxo-cyclohex-1-enyl]acetyl]carbamic acid methyl ester], in test [1], at 10 µM the inhibition was 27%. Moreover, the “% Inhibition of aldose reductase” value in the test with aldose reductase (setting [2]) is 45%. The molecule `COc1ccc2c(CC3=C(CC(=O)O)CCCC3=O)cccc2c1C(F)(F)F` [Example 13, [2-(6-methoxy-5-trifluoromethyl-naphthalen-1-ylmethyl)-3-oxo-cyclohex-1-enyl]-acetic acid] returned an inhibition at 10 µM in test [1] of 51%.

With `O=C(O)CC1=C(Cc2ccc3ccccc3c2)C(=O)CCC1` [Example 7, [2-(naphthalen-2-ylmethyl)-3-oxo-cyclohex-1-enyl]-acetic acid], 1 µM produced 41% inhibition in test [1].

Regarding `COc1ccc2cc(CC3=C(CC(=O)O)CCCC3=O)ccc2c1Br` [Example 2, [2-(5-bromo-6-methoxy-naphthalen-2-ylmethyl)-3-oxocyclohex-1-enyl] acetic acid], in test [1] (10^-7 M), the inhibition at 0.1 µM was 50%. In addition, the “% Inhibition of aldose reductase” value in the test on aldose reductase (setting [2]) was 71%.

On to `COC(=O)NC(=O)CC1=C(Cc2ccc3c(Cl)cccc3c2)C(=O)CC1` [Example 6, [2-[2-(5-chloro-naphthalen-2-ylmethyl)-3-oxo-cyclopent-1-enyl]-acetyl]carbamic acid methyl ester], for which, in test [1], the inhibition at 10 µM turned out to be 19%. With `O=C(O)COC1=C(Cc2ccc3c(Cl)cccc3c2)C(=O)CCC1` [Example 8, [[2-(5-chloro-naphthalen-2-ylmethyl)-3-oxo-1-cyclohex-1-enyl]oxy]acetic acid], the inhibition at 0.04 µM in test [1] is 81%.

The molecule `O=C(O)CC1=C(Cc2ccc3c(Cl)cccc3c2)C(=O)CC1` [Example 4, [2-(5-chloro-naphthalen-2-ylmethyl)-3-oxo-cyclopen-1-enyl]-acetic acid] returned an inhibition at 0.04 µM in test [1] of 62%. Besides, the “% Inhibition of aldose reductase” value in the test with aldose reductase (setting [2]) was 37%. Molecule `O=C(O)COC1=C(Cc2ccc3c(Cl)cccc3c2)C(=O)CC1` [Example 11, [[2-(5-chloro-naphthalen-2-ylmethyl)-3-oxo-cyclopent-1-enyl]oxy]-acetic acid] yielded an inhibition at 0.04 µM in test [1] of 70%. As for `O=C(O)COC1=C(Cc2ccc3ccccc3c2)C(=O)CCC1` [Example 9, [[2-(naphthalen-2-ylmethyl)-3-oxo-1-cyclohex-1-enyl]oxy]acetic acid], in test [1], the inhibition at 1 µM amounted to 87%.
